Source: patent US10765680B2, “Combination of a MCL-1 inhibitor and a taxane compound, uses and pharmaceutical compositions thereof” (priority 2017, dated 2020)

Tests used:
[1] = test system: MDA-MB-453 breast cancer cell line; assay: 72 hours CellTiter-Glo proliferation assay, MDA-MB-453; assay type: cell-based; conditions: single agent, read-out: Abs IC50
Experimental: (§1) Compounds were dissolved in 100% DMSO (Sigma, Catalog # D2438-50 ML) at a stock concentration of 10 mM and stored at −20° C. until use. Compounds were arrayed in 2 ml deep 96-well plates (Greiner bio-one, catalog number 780271) serially diluted 3-fold. Compound 1 was used over a concentration range of 0.0-10.0 μM. Paclitaxel was used over a concentration range of 0.0-1.0 μM in breast cancer cells and 0.0-2.0 μM range in lung cancer cells.
(§2) All cell lines were purchased from the American Type Culture Collection and cultured according to vendor recommendations. […] All cell lines were determined to be free of mycoplasma contamination by a PCR detection assay performed at Idexx Radil (Columbia, Mo., USA) and authenticated by SNP analysis. […] Cells were expanded to T-75 flasks and assessed for viability using a Beckman-Coulter ViCell counter prior to plating. […]
(§3) Cell proliferation was measured in 72 hours CellTiter-Glo™ (CTG) assays and all results shown are the result of at least triplicate measurements. […] After 72 hours of compound treatment the effects of compounds on cell proliferation was determined using the CellTiter-Glo™ Luminescent Cell Viability Assay (Promega, Catalog # G7573). This is a homogeneous method to determine the number of viable cells in culture based on quantitation of the ATP present, which signals the presence of metabolically active cells. […]

TNBC 110T PDX model = assay: TNBC 110T PDX model, tumor growth and survival (Compound 1, docetaxel); assay type: in vivo, NOD-SCID-IL2Rγc−/− female mice; conditions: Compound 1 15 mg/kg i.v. twice weekly for six weeks
Experimental: A cohort of 40 female NSG mice was seeded with thawed single cell suspensions of early passage human breast tumors (TNBC PDX110). Briefly, 100,000 cells were resuspended in 10 μl of transplantation buffer (50% fetal calf serum, 10% of a 0.04% trypan blue solution and 40% PBS) and growth-factor-reduced Matrigel [BD] at a ratio of 3:1, and injected into the cleared mammary fat pads of 3- or 4-week-old NOD-SCID-IL2Rγc^−/− female mice. […] Once tumors reached a volume of 60-110 mm^3, mice were randomized into treatment arms and treatment commenced. Docetaxel or its vehicle was prepared by dissolving stock solution (20 mg/ml) with PBS and injected i.p. every 21 days for two treatment cycles. The duration of therapy is indicated by the bar. […] Compound 1 (15 mg/kg) or its vehicle was injected i.v. twice weekly for six weeks. Mice were sacrificed at the first measurement where tumor volume exceeded 600 mm^3, or if their health deteriorated for reasons other than disease progression or drug toxicity (censored event). n=9-10 mice per treatment group.

[2] = MDA-MB-231 breast xenograft model, tolerability and surviving animals; assay type: in vivo, female nude rats; conditions: Compound 1 50 mg/kg dosed 0.5 h or 16 h after vehicle for paclitaxel
Experimental: This study evaluated the antitumor activity and tolerability of Compound 1 in combination with paclitaxel in the triple negative breast cancer (TNBC) model, MDA-MB-231, in female NTac:NIH-Whn nude rats (Taconic).
Compound 1 (free base) and paclitaxel (Sandoz) was used in these studies. Paclitaxel was diluted as per manufacturer's instruction with sterile 5% (w/v) glucose solution to 1.5 mg/ml to administer 7.5 mg/kg in 5 ml/kg dose volume [final ethanol and Cremophor EL concentration was 10 and 15%, respectively in 5% (w/v) glucose solution]. Compound 1 was formulated in a liposomal formulation (Novartis) at 5 mg/ml to administer 50 mg/kg dose in 10 ml/kg dose volume.
MDA-MB-231, a triple negative breast cancer cell line, was obtained from ATCC cell bank. […] Tumor growth was monitored regularly post cell inoculation and animals were randomised into treatment groups (n=7-8) with a mean tumor volume of about 400 mm^3. […]
The vehicle for paclitaxel or paclitaxel was administered once a week (QW) as a slow bolus dose via a caudal vein 0.5 h or 16 h before the vehicle for Compound 1 or Compound 1 itself in liposomal formulation and these were administered by iv infusion over 15 minutes in a caudal vein. […] Tumor volumes were measured using calipers 2-3 times per week. Tumor size, in mm^3, was calculated from: (L×W^2×π/6), where W=width and L=length of the tumor. […]

[3] = test system: NCI-H23 lung cancer cell line; assay: 72 hours CellTiter-Glo proliferation assay, NCI-H23; assay type: cell-based; conditions: single agent, read-out: Abs IC50
Experimental: as §1, §2, §3

[4] = test system: MCF7 breast cancer cell line; assay: 72 hours CellTiter-Glo proliferation assay, MCF7; assay type: cell-based; conditions: single agent, read-out: Abs IC50
Experimental: as §1, §2, §3

COc1ccccc1-c1nccc(COc2ccccc2C[C@@H](Oc2ncnc3sc(-c4ccc(F)cc4)c(-c4ccc(OCCN5CCN(C)CC5)c(Cl)c4C)c23)C(=O)O)n1 [Compound 1, (2R)-2-{[(5Sa)-5-{3-chloro-2-methyl-4-[2-(4-methylpiperazin-1-yl)ethoxy]phenyl}-6-(4-fluorophenyl)thieno[2,3-d]pyrimidin-4-yl]oxy}-3-(2-{[2-(2-methoxyphenyl)pyrimidin-4-yl]methoxy}phenyl)propanoic acid]
IC50 [1]: > 10 µM
inhibition of tumor growth, single agent (TNBC 110T PDX model): insufficient in inhibiting tumor growth
tolerability [2]: well tolerated
IC50 [3]: 0.16 µM
IC50 [4]: 1.29 µM
